Data taken from patent publication US20150274719A1, “AMINO-SUBSTITUTED IMIDAZO[1,2-A]PYRIDINECARBOXAMIDES AND THEIR USE” (BAYER PHARMA AKTIENGESELLSCHAFT, priority 2012, published 2015).
Structures can show the parent of a compound that is named as a salt. Where two headings read alike, the source gives them in different places.

Columns and labels:
[1] = Determination of pharmacokinetic parameters following intravenous and oral administration (rats); assay type: in vivo, male Wistar rats; details: intravenous administration in rats
Experimental: B-6. Determination of Pharmacokinetic Parameters Following Intravenous and Oral Administration
The pharmacokinetic parameters of the compounds according to the invention are determined in male CD-1 mice, male Wistar rats and female beagles. Intravenous administration in the case of mice and rats is carried out by means of a species-specific plasma/DMSO formulation, and in the case of dogs by means of a water/PEG400/ethanol formulation. In all species, oral administration of the dissolved substance is performed via gavage, based on a water/PEG400/ethanol formulation. The taking of blood from rats is simplified by inserting a silicone catheter into the right Vena jugularis externa prior to substance administration. The operation is carried out at least one day prior to the experiment with […] and administration of an analgesic (atropin/Rimadyl (3/1) 0.1 ml s.c.). The blood is taken (generally more than 10 time points) within a time window including terminal time points of at least 24 to a maximum of 72 hours after substance administration. When the blood is taken, it is passed into heparinised tubes. Then the blood plasma is obtained by centrifugation and is optionally stored at −20° C. until further processing.
An internal standard (which may also be a chemically unrelated substance) is added to the samples of the compounds according to the invention, calibration samples and qualifiers, and there follows protein precipitation by means of excess acetone. Addition of a buffer solution matched to the LC conditions, and subsequent vortexing, is followed by centrifugation at 1000 g. The supernatant is analysed by LC-MS/MS using C18 reversed-phase columns and variable mobile phase mixtures. The substances are quantified via the peak heights or areas from extracted ion chromatograms of specific selected ion monitoring experiments.
The plasma concentration/time plots determined are used to calculate the pharmacokinetic parameters such as AUC, Cmax, t1/2 (terminal half life), F (bioavailability), MRT (mean residence time) and CL (clearance), using a validated pharmacokinetic calculation program.
Since the substance quantification is carried out in plasma, it is necessary to determine the blood/plasma distribution of the substance in order to be able to adjust the pharmacokinetic parameters correspondingly. For this purpose, a defined amount of substance is incubated in heparinized whole blood of the species in question in a rocking roller mixture for 20 min. After centrifugation at 1000 g, the plasma concentration is measured (by means of LC-MS/MS; see above) and determined by calculating the ratio of the Cblood/Cplasma value.

[2] = target: T1, recombinant guanylate cyclase reporter cell line (Rattus norvegicus, UniProt P19686+P20595); assay: Action on recombinant guanylate cyclase reporter cell line; assay type: cell-based; details: in some cases mean values from individual determinations
T1 construct: expressed in transfected cells; host or cells: recombinant reporter cell line
T1 sequence (P19686 1-690): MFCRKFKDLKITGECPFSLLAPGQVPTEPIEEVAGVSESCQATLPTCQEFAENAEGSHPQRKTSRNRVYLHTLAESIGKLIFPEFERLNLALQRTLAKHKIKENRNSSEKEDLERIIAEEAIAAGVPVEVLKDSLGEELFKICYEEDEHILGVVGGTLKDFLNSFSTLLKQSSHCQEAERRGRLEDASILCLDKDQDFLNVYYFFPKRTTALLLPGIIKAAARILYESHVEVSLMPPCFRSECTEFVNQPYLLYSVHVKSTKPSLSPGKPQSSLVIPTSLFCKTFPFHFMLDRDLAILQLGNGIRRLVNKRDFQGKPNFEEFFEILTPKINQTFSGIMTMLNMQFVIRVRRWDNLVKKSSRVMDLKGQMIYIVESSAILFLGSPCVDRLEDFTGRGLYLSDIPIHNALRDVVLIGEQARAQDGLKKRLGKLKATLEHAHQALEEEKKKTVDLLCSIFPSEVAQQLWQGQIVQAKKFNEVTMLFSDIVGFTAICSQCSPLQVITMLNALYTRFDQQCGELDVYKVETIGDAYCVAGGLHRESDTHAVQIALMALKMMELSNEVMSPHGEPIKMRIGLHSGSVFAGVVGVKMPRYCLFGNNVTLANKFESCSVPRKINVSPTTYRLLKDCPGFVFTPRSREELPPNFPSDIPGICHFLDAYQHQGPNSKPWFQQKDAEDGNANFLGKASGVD
T1 sequence (P20595 1-619): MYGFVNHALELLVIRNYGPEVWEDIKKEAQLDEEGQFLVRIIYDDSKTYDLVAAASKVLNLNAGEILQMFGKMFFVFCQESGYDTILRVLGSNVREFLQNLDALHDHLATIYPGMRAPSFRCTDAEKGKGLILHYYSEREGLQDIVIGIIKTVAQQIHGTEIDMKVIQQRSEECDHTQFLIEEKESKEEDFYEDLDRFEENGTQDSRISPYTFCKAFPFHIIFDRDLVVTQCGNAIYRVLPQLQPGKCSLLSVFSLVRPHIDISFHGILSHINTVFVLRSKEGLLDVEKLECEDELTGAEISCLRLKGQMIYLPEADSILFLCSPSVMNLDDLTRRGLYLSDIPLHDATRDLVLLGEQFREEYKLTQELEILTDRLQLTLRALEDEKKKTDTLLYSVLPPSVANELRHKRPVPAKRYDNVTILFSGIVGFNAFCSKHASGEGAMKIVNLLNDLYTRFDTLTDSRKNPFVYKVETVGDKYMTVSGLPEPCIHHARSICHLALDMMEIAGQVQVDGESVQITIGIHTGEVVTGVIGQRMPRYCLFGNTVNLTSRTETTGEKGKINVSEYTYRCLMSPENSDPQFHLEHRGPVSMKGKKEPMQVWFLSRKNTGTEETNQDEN
How it was run: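 Rat recombinant guanylate cyclase reporter cell line measures cellular activity. Value reported as MEC (minimal effective concentration), sometimes averaged over individual determinations.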

[3] = male, Wistar, rat, plasma, iv, read-out: MRT

AUCnorm [1] [kg·h/L] | CLblood [1] [mL/min/kg] | half-life ([1]; male, Wistar, rat, plasma, iv) [h] | MRT [1, 3] [h] | MEC (minimal effective concentration) [2] [µM] | MRT [1] [h] | t1/2 [1] [h] | Structure (SMILES)
0.38 | 41.8 | 4.4 | 6.8 | 0.3 | – | – | CCCC(C)(N)CNC(=O)c1c(C)nc2c(OCc3c(F)cccc3F)cc(C(F)F)cn12 (single isomer, unassigned; enantiomer b) [Example 289, ent-N-(2-amino-2-methylpentyl)-8-[(2,6-difluorobenzyl)oxy]-6-(difluoromethyl)-2-methyl-imidazo[1,2-a]pyridine-3-carboxamide Formate (Enantiomer B)]
0.87 | 14 | 4.8 | 5.7 | 1.0 | – | – | Cc1nc2c(OCc3c(F)cccc3F)cc(C(F)F)cn2c1C(=O)NCC(C)(N)CF (single isomer, unassigned; enantiomer a) [Example 291, ent-N-(2-amino-3-fluoro-2-methylpropyl)-8-[(2,6-difluorobenzyl)oxy]-6-(difluoromethyl)-2-methylimidazo[1,2-a]pyridine-3-carboxamide (Enantiomer A)]
0.47 | 38.2 | 3.7 | 4.7 | 0.10 | – | – | Cc1cc(OCc2c(F)cccc2F)c2nc(C)c(C(=O)NCC(C)(N)C3CC3)n2c1 (single isomer, unassigned; enantiomer b) [Example 261, ent-N-(2-Amino-2-cyclopropylpropyl)-8-[(2,6-difluorobenzyl)oxy]-2,6-dimethylimidazo[1,2-a]-pyridine-3-carboxamide (Enantiomer B)]
0.67 | 14.5 | 3.1 | 3.9 | 0.3 | – | – | Cc1cc(OCc2c(F)cccc2F)c2nc(C)c(C(=O)NCC(C)(N)CF)n2c1 (single isomer, unassigned; enantiomer a) [Example 283, ent-N-(2-amino-3-fluoro-2-methylpropyl)-8-[(2,6-difluorobenzyl)oxy]-2,6-dimethylimidazo[1,2-a]pyridine-3-carboxamide (Enantiomer A)]
1.55 | 8.5 | 8.6 | 11.8 | 0.30 | – | – | Cc1nc2c(OCc3c(F)cccc3F)cc(Cl)cn2c1C(=O)NCC(C)(C)N [Example 73, N-(2-Amino-2-methylpropyl)-6-chloro-8-[(2,6-difluorobenzyl)oxy]-2-methylimidazo[1,2-a]-pyridine-3-carboxamide]
0.41 | 25.3 | – | – | 0.03 | 11.2 | 8.2 | Cc1cc(OCc2c(F)ccc(F)c2F)c2nc(C)c(C(=O)NCC(C)(N)CCC(F)(F)F)n2c1 (single isomer, unassigned) [Example 411, ent-N-(2-amino-5,5,5-trifluoro-2-methylpentyl)-2,6-dimethyl-8-[(2,3,6-trifluorobenzyl)oxy]imidazo[1,2-a]pyridine-3-carboxamide]
1.20 | 16.2 | – | – | 0.1 | 5.3 | 4.6 | Cc1cc(OCc2c(F)cccc2F)c2nc(C)c(C(=O)NCC(C)(N)CF)n2c1 (single isomer, unassigned; enantiomer b) [Example 284, ent-N-(2-amino-3-fluoro-2-methylpropyl)-8-[(2,6-difluorobenzyl)oxy]-2,6-dimethylimidazo[1,2-a]pyridine-3-carboxamide (Enantiomer B)]
0.19 | 51.2 | 3.8 | 4.7 | 0.10 | – | – | Cc1cc(OCc2c(F)cccc2F)c2nc(C)c(C(=O)NCC(C)(N)CCC(F)(F)F)n2c1 (single isomer, unassigned) [Example 408, ent-N-(2-amino-5,5,5-trifluoro-2-methylpentyl)-8-[(2,6-difluorobenzyl)oxy]-2,6-dimethylimidazo[1,2-a]pyridine-3-carboxamide]
0.28 | 39 | 5.5 | 6.9 | 0.3 | – | – | CCCC(C)(N)CNC(=O)c1c(C)nc2c(OCc3c(F)cccc3F)cc(C3CC3)cn12 (single isomer, unassigned; enantiomer b) [Example 281, ent-N-(2-amino-2-methylpentyl)-6-cyclopropyl-8-[(2,6-difluorobenzyl)oxy]-2-methylimidazo[1,2-a]pyridine-3-carboxamide (Enantiomer B)]
0.56 | 36.2 | – | – | 0.03 | 4.1 | 3.2 | Cc1nc2c(OCc3c(F)cccc3F)cc(C(F)F)cn2c1C(=O)NCC(C)(N)CF (single isomer, unassigned; enantiomer b) [Example 292, ent-N-(2-amino-3-fluoro-2-methylpropyl)-8-[(2,6-difluorobenzyl)oxy]-6-(difluoromethyl)-2-methylimidazo[1,2-a]pyridine-3-carboxamide (Enantiomer B)]
0.54 | 28 | 3.3 | 3.9 | 0.30 | – | – | Cc1cc(OCc2c(F)cccc2F)c2nc(C)c(C(=O)NC[C@H]3CCCCN3)n2c1 [Example 173, 8-[(2,6-Difluorobenzyl)oxy]-2,6-dimethyl-N-[(2R)-piperidin-2-ylmethyl]imidazo[1,2-a]pyridine-3-carboxamide]
0.61 | 16.3 | 10.3 | 13.9 | 0.10 | – | – | C#Cc1cc(OCc2c(F)cccc2F)c2nc(C)c(C(=O)NCC(C)(N)CCC)n2c1 (stereo not drawn) [Example 356, ent-N-(2-amino-2-methylpentyl)-8-[(2,6-difluorobenzyl)oxy]-6-ethynyl-2-methylimidazo[1,2-a]pyridine-3-carboxamide]
